According to ChEMBL document CHEMBL3351426, “Development of new estradiol-cationic lipid hybrids: ten-carbon twin chain cationic lipid is a more suitable partner for estradiol to elicit better anticancer activity” (Eur J Med Chem, 2014):
Calls of active or inactive are those of the source. The rule behind the calls is not given here.

Tests used:
[1] = system: MCF7; assay: Antiproliferative activity human ER-positive MCF7 cells after 2 days by MTT assay; format: functional, cell-based; settings: MCF7, 48 h
[2] = Antiproliferative activity human MIAPaCa2 cells after 2 days by MTT assay; format: functional, cell-based; settings: MIA PaCa-2, 48 h
[3] = Antiproliferative activity mouse B16F10 cells after 2 days by MTT assay; format: functional, cell-based; settings: B16-F10, 48 h
[4] = system: MDA-MB-231; assay: Antiproliferative activity human ER-negative MDA-MB-231 cells after 2 days by MTT assay; format: functional, cell-based; settings: MDA-MB-231, 48 h
[5] = system: CHO; assay: Antiproliferative activity against CHO cells after 2 days by MTT assay; format: cell-based; settings: Cricetulus griseus, 48 h
[6] = Antiproliferative activity mouse NIH/3T3 cells after 2 days by MTT assay; format: cell-based; settings: NIH3T3, 48 h
[7] = system: B16-F10; assay: Antitumor activity against mouse B16F10 cells inoculated in C57BL6J mouse assessed as tumor regression at 9.15 mg/kg, ip for 9 days; format: functional, organism-based; design: dose 9.15 mg/kg
[8] = system: RAW264.7; assay: Induction of apoptosis in mouse RAW264.7 cells assessed as late apoptotic cells at 5 uM after 24 hrs by FITC-annexin V/PI staining based flow cytometry (RVB = 0.51%); format: cell-based; settings: raw264.7, 24 h
[9] = system: B16-F10; assay: Induction of apoptosis in mouse B16F10 cells assessed as early apoptotic cells at 5 uM after 24 hrs by FITC-annexin V/PI staining based flow cytometry (RVB = 0.36%); format: functional
[10] = system: B16-F10; assay: Induction of apoptosis in mouse B16F10 cells assessed as late apoptotic cells at 5 uM after 24 hrs by FITC-annexin V/PI staining based flow cytometry (RVB = 4.94%); format: functional
[11] = Induction of apoptosis in CHO cells assessed as viable cells at 5 uM after 24 hrs by FITC-annexin V/PI staining based flow cytometry (RVB = 99.21%); format: cell-based, Cricetulus griseus; settings: chinese hamster, read-out: Activity
[12] = system: MDA-MB-231; assay: Induction of apoptosis in human ER-negative MDA-MB-231 cells assessed as viable cells at 5 uM after 24 hrs by FITC-annexin V/PI staining based flow cytometry (RVB =95.66%); format: functional; settings: MDA-MB-231, 24 h, read-out: Activity
[13] = system: B16-F10; assay: Induction of apoptosis in mouse B16F10 cells assessed as necrotic cells at 5 uM after 24 hrs by FITC-annexin V/PI staining based flow cytometry (RVB = 5.12%); format: functional
[14] = system: RAW264.7; assay: Induction of apoptosis in mouse RAW264.7 cells assessed as early apoptotic cells at 5 uM after 24 hrs by FITC-annexin V/PI staining based flow cytometry (RVB = 0.69%); format: cell-based; settings: raw264.7, 24 h
[15] = system: B16-F10; assay: Antitumor activity against mouse B16F10 cells inoculated in C57BL6J mouse assessed as tumor regression at 10 mg/kg, ip for 9 days; format: functional, organism-based; design: dose 10 mg/kg
[16] = system: MDA-MB-231; assay: Induction of apoptosis in human ER-negative MDA-MB-231 cells assessed as early apoptotic cells at 5 uM after 24 hrs by FITC-annexin V/PI staining based flow cytometry (RVB = 1.15%); format: functional
[17] = system: MDA-MB-231; assay: Induction of apoptosis in human ER-negative MDA-MB-231 cells assessed as necrotic cells at 5 uM after 24 hrs by FITC-annexin V/PI staining based flow cytometry (RVB = 2.21%); format: functional
[18] = system: CHO; assay: Induction of apoptosis in CHO cells assessed as early apoptotic cells at 5 uM after 24 hrs by FITC-annexin V/PI staining based flow cytometry (RVB = 0.00%); format: cell-based, Cricetulus griseus; settings: chinese hamster
[19] = Cell cycle arrest in mouse B16F10 cells assessed as accumulation at sub-G0 phase at 5 to 10 uM after 24 hrs by PI staining based flow cytometry; format: functional; settings: B16-F10
[20] = system: B16-F10; assay: Antitumor activity against mouse B16F10 cells expressing ER inoculated in C57BL6J mouse assessed as tumor regression at 10 mg/kg, ip for 9 days in presence of estradiol; format: functional, organism-based; design: dose 10 mg/kg
[21] = system: MCF7; assay: Cell cycle arrest in human ER-positive MCF7 cells assessed as accumulation at sub-G0 phase at 5 to 10 uM after 24 hrs by PI staining based flow cytometry; format: functional
[22] = system: B16-F10; assay: Induction of apoptosis in mouse B16F10 cells assessed as viable cells at 5 uM after 24 hrs by FITC-annexin V/PI staining based flow cytometry (RVB = 89.58%); format: functional; settings: B16-F10, 24 h, read-out: Activity
[23] = system: MCF7; assay: Cell cycle arrest in human ER-positive MCF7 cells assessed as reduction in accumulation at G0-G1 phase 5 to 10 uM after 24 hrs by PI staining based flow cytometry; format: functional
[24] = system: MCF7; assay: Induction of apoptosis in human ER-positive MCF7 cells assessed as viable cells at 5 uM after 24 hrs by FITC-annexin V/PI staining based flow cytometry (RVB = 92.22%); format: functional; settings: MCF7, 24 h, read-out: Activity
[25] = system: MCF7; assay: Induction of apoptosis in human ER-positive MCF7 cells assessed as late apoptotic cells at 5 uM after 24 hrs by FITC-annexin V/PI staining based flow cytometry (RVB = 3.68%); format: functional
[26] = system: RAW264.7; assay: Induction of apoptosis in mouse RAW264.7 cells assessed as necrotic cells at 5 uM after 24 hrs by FITC-annexin V/PI staining based flow cytometry (RVB = 0.29%); format: cell-based; settings: raw264.7, 24 h
[27] = system: CHO; assay: Induction of apoptosis in CHO cells assessed as necrotic cells at 5 uM after 24 hrs by FITC-annexin V/PI staining based flow cytometry (RVB = 0.79%); format: cell-based, Cricetulus griseus; settings: chinese hamster
[28] = system: MCF7; assay: Induction of apoptosis in human ER-positive MCF7 cells assessed as necrotic cells at 5 uM after 24 hrs by FITC-annexin V/PI staining based flow cytometry (RVB = 3.24%); format: functional
[29] = system: CHO; assay: Induction of apoptosis in CHO cells assessed as late apoptotic cells at 5 uM after 24 hrs by FITC-annexin V/PI staining based flow cytometry (RVB = 0.00%); format: cell-based, Cricetulus griseus; settings: chinese hamster
[30] = Cell cycle arrest in mouse B16F10 cells assessed as reduction in accumulation at G0-G1 phase 5 to 10 uM after 24 hrs by PI staining based flow cytometry; format: functional; settings: B16-F10
[31] = Induction of apoptosis in mouse RAW264.7 cells assessed as viable cells at 5 uM after 24 hrs by FITC-annexin V/PI staining based flow cytometry (RVB = 98.51%); format: cell-based; settings: read-out: Activity
[32] = system: MDA-MB-231; assay: Induction of apoptosis in human ER-negative MDA-MB-231 cells assessed as late apoptotic cells at 5 uM after 24 hrs by FITC-annexin V/PI staining based flow cytometry (RVB = 0.99%); format: functional
[33] = system: MCF7; assay: Induction of apoptosis in human ER-positive MCF7 cells assessed as early apoptotic cells at 5 uM after 24 hrs by FITC-annexin V/PI staining based flow cytometry (RVB = 0.86%); format: functional
[34] = system: B16-F10; assay: Antitumor activity against mouse B16F10 cells expressing ER inoculated in C57BL6J mouse assessed as tumor regression at 10 mg/kg, ip for 9 days; format: functional, organism-based; design: dose 10 mg/kg

## CC/C(=C(\c1ccccc1)c1ccc(OCCN(C)C)cc1)c1ccccc1 [TAMOXIFEN]
[1]
  IC50: 4.67 µM
[2]
  IC50: 33.1 µM
[3]
  IC50: 64.9 µM
[4]
  IC50: 39 µM
[5]
  IC50: > 100 µM
[6]
  IC50: > 100 µM

## CCCCCCCC[N+](C)(CCCCCCCC)CCC[C@]1(O)CC[C@H]2[C@@H]3CCc4cc(O)ccc4[C@H]3CC[C@@]21C
[7]
  inhibition: Active
[1]
  IC50: 5.34 µM
[2]
  IC50: 6.83 µM
[3]
  IC50: 6.48 µM
[4]
  IC50: 5.62 µM
[5]
  IC50: 45.3 µM
[6]
  IC50: 51 µM

## C[C@]12CC[C@@H]3c4ccc(O)cc4CC[C@H]3[C@@H]1CC[C@@H]2O [ESTRADIOL]
[1]
  IC50: 27.4 µM
[2]
  IC50: 42.9 µM
[3]
  IC50: 39.8 µM
[4]
  IC50: 33.5 µM
[5]
  IC50: > 100 µM
[6]
  IC50: > 100 µM

## CCCCCC[N+](C)(CCCCCC)CCC[C@]1(O)CC[C@H]2[C@@H]3CCc4cc(O)ccc4[C@H]3CC[C@@]21C
[1]
  IC50: 7.85 µM
[2]
  IC50: 8.51 µM
[3]
  IC50: 6.56 µM
[4]
  IC50: 6.78 µM
[5]
  IC50: 60.4 µM
[6]
  IC50: 45.8 µM

## CCCCCCCCCC[N+](C)(CCCCCCCCCC)CCC[C@]1(O)CC[C@H]2[C@@H]3CCc4cc(O)ccc4[C@H]3CC[C@@]21C.[Cl-]
[8]
  Activity: 0.27%
[9]
  Activity: 2.53%
[10]
  Activity: 67.86%
[11]
  viability at 24 h, 5 µM: 98.3%
[12]
  viability at 5 µM: 24.3%
[1]
  IC50: 1.36 µM
[13]
  Activity: 2.87%
[14]
  Activity: 0.55%
[15]
  inhibition: Active
[16]
  Activity: 21.65%
[2]
  IC50: 0.46 µM
[17]
  Activity: 3.39%
[18]
  Activity: 0.56%
[19]
  Activity: Active
[20]
  inhibition: inactive
[21]
  Activity: Active
[22]
  viability at 5 µM: 26.7%
[23]
  Activity: Active
[24]
  viability at 5 µM: 51%
[25]
  Activity: 45.94%
[3]
  IC50: 0.5 µM
[26]
  Activity: 0.1%
[4]
  IC50: 1.14 µM
[27]
  Activity: 0.86%
[28]
  Activity: 1.4%
[5]
  IC50: 81.7 µM
[29]
  Activity: 0.23%
[6]
  IC50: 47.7 µM
[30]
  Activity: Active
[31]
  viability at 24 h, 5 µM: 99.1%
[32]
  Activity: 50.63%
[33]
  Activity: 1.62%
[34]
  inhibition: Active

## CCCCCCCCCCCC[N+](C)(CCCCCCCCCCCC)CCC[C@]1(O)CC[C@H]2[C@@H]3CCc4cc(O)ccc4[C@H]3CC[C@@]21C
[1]
  IC50: 6.23 µM
[2]
  IC50: 7.36 µM
[3]
  IC50: 5.79 µM
[4]
  IC50: 6.02 µM
[5]
  IC50: 90.8 µM
[6]
  IC50: 85.4 µM

## CCCCCCCCCCCCCC[N+](C)(CCCCCCCCCCCCCC)CCC[C@]1(O)CC[C@H]2[C@@H]3CCc4cc(O)ccc4[C@H]3CC[C@@]21C
[1]
  IC50: 17.4 µM
[2]
  IC50: 42.5 µM
[3]
  IC50: 32.3 µM
[4]
  IC50: 38.7 µM
[5]
  IC50: > 100 µM
[6]
  IC50: 80.3 µM
